Source: the RepoRT retention time repository (doi:10.1016/j.jchromb.2020.122105)

How the values were obtained:
Settings in all cases: stereoisomer not certain
[1] = RP, Waters CORTECS T3, 100 × 2.1 mm, 2.7 µm, 0.3 mL/min, estimated dead time 0.73 min; A: water + 0.1% formic acid, pH 3; B: methanol + 0.1% formic acid, pH 3; gradient (min/%B) 0/0 5/0 25/100 30/100 30.1/0 35/0
[2] = RP, Waters ACQUITY UPLC BEH C18, 100 × 2.1 mm, 1.7 µm, 0.2 mL/min, estimated dead time 1.1 min; A: water + 0.1% formic acid, pH 3; B: methanol + 0.1% formic acid, pH 3; gradient (min/%B) 0/5 5/5 25/100 30/100 30.1/5 35/5
[3] = HILIC, Merck SeQuant ZIC-HILIC, 150 × 2.1 mm, 5 µm, 0.75 mL/min, estimated dead time 0.44 min; A: water + 10 mM ammonium formate, pH 6; B: 5% water + 95% acetonitrile + 10 mM ammonium formate, pH 6; gradient (min/%B) 0/95 5/95 20/57 25/57 30/95 40/95
[4] = RP, Waters ACQUITY UPLC BEH C18, 100 × 2.1 mm, 1.7 µm, 0.1 mL/min, estimated dead time 2.2 min; A: water + 0.045% formic acid + 0.11% ammonium hydroxide, pH 7; B: methanol; gradient (min/%B) 0/5 5/5 25/95 25.1/100 35/100 35.1/5 45/5
[5] = RP, Waters ACQUITY UPLC BEH C18, 100 × 2.1 mm, 1.7 µm, 0.2 mL/min, estimated dead time 1.1 min; A: water + 0.025% formic acid + 20 mM ammonium acetate + 0.055% ammonium hydroxide, pH 7; B: methanol; gradient (min/%B) 0/5 5/5 25/100 30/100 30.1/5 35/5
[6] = as above; remark: listed apart in the source
[7] = RP, Waters CORTECS T3, 100 × 2.1 mm, 2.7 µm, 0.15 mL/min, estimated dead time 1.5 min; A: water + 0.1% formic acid, pH 3; B: methanol + 0.1% formic acid, pH 3; gradient (min/%B) 0/5 5/5 25/95 25.1/100 35/100 35.1/5 45/5
[8] = RP, Waters CORTECS T3, 100 × 2.1 mm, 2.7 µm, 0.3 mL/min, estimated dead time 0.73 min; A: water + 0.1% formic acid, pH 3; B: methanol + 0.1% formic acid, pH 3; gradient (min/%B) 0/5 5/5 25/95 25.1/100 35/100 35.1/5 45/5
[9] = RP, Waters CORTECS T3, 100 × 2.1 mm, 2.7 µm, 0.25 mL/min, estimated dead time 0.88 min; A: water + 0.1% formic acid, pH 3; B: methanol + 0.1% formic acid, pH 3; gradient (min/%B) 0/0 1/0 6/5 30/100 35/100 35.1/0 40/0
[10] = RP, Waters CORTECS T3, 100 × 2.1 mm, 2.7 µm, 0.3 mL/min, estimated dead time 0.73 min; A: water + 0.1% formic acid, pH 3; B: methanol + 0.1% formic acid, pH 3; gradient (min/%B) 0/0 5/0 25/100 30/100 30.1/0 35/0; remark: listed apart in the source
[11] = HILIC, Waters XBridge BEH Amide, 100 × 2.1 mm, 2.5 µm, 0.5 mL/min, estimated dead time 0.44 min; A: water + 0.1% acetic acid + 10 mM ammonium acetate, pH 4; B: 5% water + 95% acetonitrile + 0.1% acetic acid + 10 mM ammonium acetate, pH 4; gradient (min/%B) 0/95 5/95 20/57 25/57 30/95 40/95
[12] = RP, Thermo Scientific Hypercarb, 150 × 2.1 mm, 5 µm, 0.1 mL/min, estimated dead time 3.3 min; A: water + 0.1% formic acid, pH 3; B: methanol + 0.1% formic acid, pH 3; gradient (min/%B) 0/5 5/5 20/100 35/100 35.1/5 45/5

| LC retention time [1] [min] | LC retention time [2] [min] | LC retention time [3] [min] | LC retention time [4] [min] | LC retention time [5] [min] | LC retention time [6] [min] | LC retention time [7] [min] | LC retention time [8] [min] | LC retention time [9] [min] | LC retention time [10] [min] | LC retention time [11] [min] | LC retention time [12] [min] | SMILES |
| --- | --- | --- | --- | --- | --- | --- | --- | --- | --- | --- | --- | --- |
| 16.1 | 16.9 | 8.69 | 20.4 | 17.1 | 15.8 | 18.1 | 15.9 | 18.6 | 16.1 | – | – | N[C@@H](Cc1cc(I)c(Oc2ccc(O)cc2)c(I)c1)C(=O)O [3,5-DIIODO-L-THYRONINE] |
| 10.5 | 10.9 | – | 11.7 | 8.26 | 5.96 | 12.1 | 9.2 | 11.4 | 10.5 | 8.25 | – | O=C(O)c1cc(=O)c2ccccc2[nH]1 [4-HYDROXY-2-QUINOLINECARBOXYLIC ACID] |
| 8.6 | 8.01 | 10.5 | – | – | 1.46 | 9.08 | 5.14 | 8.69 | 8.53 | – | 21.3 | CC(C)(CO)C(O)C(=O)NCCC(=O)O [D-PANTOTHENIC ACID] |
| 12.8 | 13.4 | 0.64 | 20.6 | 16.8 | 15.4 | 14.7 | 12 | 14.2 | 12.7 | 0.72 | – | CC(C)=CCNc1ncnc2nc[nH]c12 [N6-(DELTA2-ISOPENTENYL)-ADENINE] |
| 13.2 | 14 | 8.49 | 14.1 | – | 9.66 | 15.2 | 12.5 | 14.8 | 13.2 | 8.11 | – | CC(=O)N[C@H](Cc1c[nH]c2ccccc12)C(=O)O [N-ACETYL-D-TRYPTOPHAN] |
| 10.3 | 10.4 | 9.77 | – | – | 1.36 | 11.8 | 8.97 | 11.1 | 10.3 | – | – | O=C(O)c1cc(=O)c2cccc(O)c2[nH]1 [XANTHURENIC ACID] |

Second part, the compound before the results:

| SMILES | LC retention time [1] [min] | LC retention time [2] [min] | LC retention time [3] [min] | LC retention time [4] [min] | LC retention time [5] [min] | LC retention time [6] [min] | LC retention time [7] [min] | LC retention time [8] [min] | LC retention time [9] [min] | LC retention time [10] [min] | LC retention time [11] [min] | LC retention time [12] [min] |
| --- | --- | --- | --- | --- | --- | --- | --- | --- | --- | --- | --- | --- |
| CC1NC(=O)NC1CCCCCC(=O)O (stereo not given) [DETHIOBIOTIN] | 13.2 | 13.8 | 3.19 | 12.5 | 9.58 | 8.17 | 15.1 | 12.6 | 14.9 | 13.2 | – | 30 |
| Nc1nc2nccnc2c(=O)[nH]1 [PTERIN] | 3.11 | 2.44 | 5.74 | – | – | 1.41 | 3.45 | 1.68 | – | 2.96 | 4.98 | – |
| Cc1cc2nc3c(=O)[nH]c(=O)nc-3n(CC(O)C(O)C(O)CO)c2cc1C (stereo not given) [RIBOFLAVIN] | 12.5 | 12.7 | – | 15.7 | 12.7 | 11.9 | 14.1 | 11.9 | 14 | 12.5 | – | – |
| O=c1[nH]c(=O)c2[nH]cnc2[nH]1 [XANTHINE] | 2.39 | 2.14 | 5.7 | – | – | 1.36 | 3.01 | 1.51 | 2.63 | 2.27 | 6.47 | – |
